Data from US11612586B2, “Indole regulation of antigen presenting cells” (THE TEXAS A&M UNIVERSITY SYSTEM, priority 2016, dated 2023).

Assays:
[1] = system: Th1 cells; assay: Th1 differentiation in DC-T cell co-culture; type: cell-based, mouse
Description: FIGS. 19A-19C graphically illustrate that indole-conditioned DCs inhibit Th1, Th2, and Th17 differentiation. Naïve CD4+CD25-T cells from OT-II TCR transgenic mice were isolated by column purification. Naïve T cells were then co-cultured with OVA323-339 peptide-loaded BMDCs for 72 hours in the presence or absence of lineage-skewing cytokines (described in methods). BMDCs were previously treated with indole, RA, or DMF from day 3. For the last 5 hours of culture, T cells were restimulated with PMA and ionomycin in the presence of Golgiplug, followed by intracellular staining. Cytokine production was determined to assess differentiation of Th1 (FIG. 19A), Th2 (FIG. 19B), and Th17 CD4+T (FIG. 19C) cells. Mean of three independent experiments. * indicates p<0.05 for one-way ANOVA followed by Dunnett's post-test.
FIGS. 20A and 20B graphically illustrate that T cell skewing mediated by indole-conditioned DCs is AhR-independent. BMDCs were differentiated from WT or AhR-KO mice and conditioned with indole, RA, or DMF from day 3. DCs were then loaded with OVA323-339 and co-cultured with naïve CD4+CD25− T cells from OT-II transgenic mice for 72 hours. […] Subsequently, all cultures were stained and analyzed by flow cytometry for Foxp3 to identify Tregs or (B) IFNγ to identify Th1 cells. […]

[2] = system: Salmonella Typhimurium; assay: Salmonella invasion of HeLa epithelial cells (Salmonella exposed to indole); type: cell-based
[3] = system: Salmonella Pathogenicity Island-1 (SPI-1) genes; assay: Expression of Salmonella Pathogenicity Island-1 genes; type: cell-based, Salmonella Typhimurium
[4] = system: aldehyde dehydrogenase (ALDH); assay: Aldehyde dehydrogenase activity in BMDCs (Aldefluor); type: cell-based, mouse; conditions: indole 1 mM from day 3, Aldefluor
Description: FIG. 13A: BMDCs were cultured from day 3 with indole (1 mM), retinoic acid (1 uM), or DMF control were assayed for aldehyde dehydrogenase (ALDH) activity using the Aldefluor commercial kit. The ALDH inhibitor, DEAB reagent, was included to control for background fluorescence. Aldefluor fluorescence as a measure of ALDH activity was analyzed by flow cytometry. Data is reported as percentage of Aldefluor positive DCs (left panel) and corresponding MFI values (right panel). Individual dots represent data from five independent experiments. FIG. 13B: Gene expression of aldh1a2 was assayed by real-time qPCR in day 7 BMDCs cultured with indole from day 3. Gene expression was normalized to 18 s ribosomal RNA. […]
One possible explanation for these observations is that indole promotes retinoic acid availability to the DCs, thus inducing gut homing markers indirectly by providing substrate for a previously identified mechanism. To investigate this possibility, aldehyde dehydrogenase (ALDH) activity was analyzed via flow cytometry using the fluorescent ALDH substrate, Aldefluor. […]
Activity of aldehyde dehydrogenase (ALDH) in individual BMDCs was measured using an Aldefluor staining kit (Stem Cell Technologies) according to the manufacturer's instructions with minor modifications. […] Subsequently, cells were stained with CD11c in cold Aldefluor assay buffer and then analyzed by flow cytometry.

[5] = system: IL-10; assay: IL-10 production by BMDC cultures (ELISA); type: cell-based, mouse; conditions: indole-conditioned DCs
Description: To determine whether this was a specific downregulation of pro-inflammatory cytokines, production of the canonical DC-produced anti-inflammatory cytokines, IL-10 and TGF-β, was also examined.
Cytokine concentration in the supernatant of BMDC cultures was assessed using commercially available ELISA kits for IL-10 (Peprotech) and TGF-β (eBioscience) per the manufacturer's instructions.

SMILES: c1ccc2[nH]ccc2c1 [Indole, indole]
- development of Th1 lineage ([1]; co-culture with DCs conditioned with indole): stark inhibition
- AhR dependence of inhibition of the Th1 lineage ([1]; indole-conditioned BMDCs from wild-type or AhR-deficient mice): AhR-independent
- decrease of Salmonella invasion of HeLa epithelial cells [2]: 160 fold
- expression of four SPI-1 genes involved in invasion [3]: decrease in expression
- effect of short chain fatty acids on attenuation of SPI-1 gene expression ([3]; indole together with short chain fatty acids): synergistically enhanced
- ALDH activity in DCs [4]: does not affect ALDH activity
- IL-10 production [5]: Neither IL-10 nor TGF-β production were affected
